NC(=O)[C@@H]1CCCN1
solubility (mole fraction)
Details | in DMF | in THF | in acetone | in acetonitrile | in cyclohexane | in ethyl acetate | in isopropanol | in n-heptane | in n-hexane | in n-propanol
278.15 K | 0.0422 | 0.0621 | 0.0644 | 0.0557 | 6e-05 | 0.0134 | 0.0532 | 0.00025 | 6e-05 | 0.0467
283.15 K | 0.0578 | 0.075 | 0.078 | 0.0634 | 9e-05 | 0.0179 | 0.0618 | 0.00036 | 9e-05 | 0.0597
288.15 K | 0.0758 | 0.0885 | 0.0956 | 0.073 | 0.00014 | 0.0242 | 0.0795 | 0.00049 | 0.00015 | 0.0753
293.15 K | 0.0976 | 0.107 | 0.113 | 0.0838 | 0.00022 | 0.0315 | 0.0995 | 0.00068 | 0.00023 | 0.0933
298.15 K | 0.123 | 0.129 | 0.133 | 0.0951 | 0.00032 | 0.042 | 0.125 | 0.00096 | 0.00032 | 0.111
303.15 K | 0.156 | 0.156 | 0.154 | 0.106 | 0.00051 | 0.0549 | 0.153 | 0.00131 | 0.00051 | 0.13
308.15 K | 0.194 | 0.189 | 0.177 | 0.116 | 0.00079 | 0.0711 | 0.19 | 0.0018 | 0.00077 | 0.16
313.15 K | 0.238 | 0.228 | 0.2 | 0.127 | 0.00124 | 0.0927 | 0.23 | 0.00239 | 0.00112 | 0.204
318.15 K | 0.288 | 0.287 | 0.225 | 0.138 | 0.0017 | 0.121 | 0.28 | 0.00304 | 0.00159 | 0.259
323.15 K | 0.347 | 0.362 | 0.252 | 0.148 | 0.00231 | 0.154 | 0.355 | 0.00401 | 0.00212 | 0.328

Reference: BigSolDB 2.1
